{"source": "patent US12691107B2", "about": "“Methods for the treatment and prevention of lung infections caused by gram-positive bacteria, fungus, or virus by administration of tafenoquine” (priority 2020, dated 2026)", "assay_type_in_all_cases": "cell-based", "key": {"[1]": {"test_system": "Curvularia sp.", "experiment": "Antifungal MIC (RPMI-1640 microdilution)", "settings": "read-out: MIC 100% inhibition"}, "[2]": {"test_system": "Exserohilum sp.", "experiment": "Antifungal MIC (RPMI-1640 microdilution)", "settings": "read-out: MIC 100% inhibition"}, "[3]": {"test_system": "Aspergillus fumigatus", "experiment": "Antifungal MIC (RPMI-1640 microdilution)"}, "[4]": {"test_system": "Aspergillus flavus", "experiment": "Antifungal MIC (RPMI-1640 microdilution)"}, "[5]": {"test_system": "Altenaria sp.", "experiment": "Antifungal MIC (RPMI-1640 microdilution)", "settings": "read-out: MIC 100% inhibition"}, "[6]": {"test_system": "P. variotii", "experiment": "Antifungal MIC (RPMI-1640 microdilution)", "settings": "Paecilomyces variotii, read-out: MIC 100% inhibition"}, "[7]": {"test_system": "Fusarium sp.", "experiment": "Antifungal MIC (RPMI-1640 microdilution)"}, "[8]": {"test_system": "Streptococcus pneumoniae", "experiment": "Antibacterial MIC (broth microdilution)", "settings": "Streptococcus pneumoniae, CA-MHB with 3% LHB"}, "[9]": {"test_system": "Staphylococcus aureus", "experiment": "Antibacterial MIC (broth microdilution)"}, "[10]": {"test_system": "A. baumannii", "experiment": "Antibacterial MIC (broth microdilution)", "settings": "Acinetobacter baumannii"}, "[11]": {"test_system": "P. aeruginosa", "experiment": "Antibacterial MIC (broth microdilution)", "settings": "Pseudomonas aeruginosa"}, "[12]": {"test_system": "K. pneumoniae", "experiment": "Antibacterial MIC (broth microdilution)", "settings": "Klebsiella pneumoniae"}, "[13]": {"test_system": "E. coli", "experiment": "Antibacterial MIC (broth microdilution)", "experimental": "Growth Medium—Cation adjusted Mueller-Hinton broth was used as the test medium. Broth for panel preparation was prepared from commercial dehydrated medium (Difco formulation, BD Diagnostics, catalog number 275730).\nDilution of Investigational Agents—Polystyrene test tubes were used to prepare the drug dilutions and sterile U-shaped 96-well polystyrene microtiter trays were used for performing the MIC assays. Stock solutions of the investigational agents were prepared at concentrations 100-times the highest concentration to be tested (6400-1.25 μg/ml) using dimethyl sulfoxide. Aliquots of the stock solutions were dispensed into polypropylene vials and stored at −20° C. Further dilutions (1:50) were made in the culture medium (cation-adjusted Mueller-Hinton medium).\nAfter the dilutions of the working 2-fold investigational antibacterial solutions were prepared, 50 μL of each concentration was transferred into rows of the first 10 wells of each 12-well column of the U-shaped disposable 96-well microtiter trays using a multichannel pipettor. The 11th well in each row served as the sterility control, and the 12th well contained only culture medium to serve as the growth control for each isolate. In like manner, the control drug for the organism being tested was prepared in a separate 96 well panel exactly as described above. A 50 μL volume of the standardized inoculum suspension of each test isolate was prepared in culture medium to directly inoculate each test well of the drug containing microtiter tray.\nInoculum Preparation—Colonies of each strain generated on sheep blood agar plates with overnight growth at 35° C. in ambient air were used to directly prepare a suspension equivalent in density to the 0.5 McFarland opacity standard. The exact turbidity of each suspension was determined using a desktop portable photometer. For panels containing 2× drug concentrations, a 1:100 dilution of the McFarland organism suspension was prepared in cation-adjusted Mueller-Hinton broth and 50 μL aliquots of each test (and control) strain was added to each well of the designated rows of the microtiter trays using a multichannel pipettor. The target inoculum concentration was 5×10^5 CFU/ml in each well.\nTrays were removed and each well were inspected for evidence of growth (turbidity). The MIC was defined as the lowest concentration of the investigational agent and the control drug that prevents visibly discernible growth in the test wells."}}, "note": "Where two headings read alike, the source gives them in different places."}
{"smiles": "C[C@@H](c1ncncc1F)[C@](O)(Cn1cncn1)c1ccc(F)cc1F", "note": "[Voriconazole]", "values": [{"measurement": "MIC", "setting": "[1]", "value": 0.5, "unit": "µg/mL"}, {"measurement": "MIC", "setting": "[2]", "value": 0.5, "unit": "µg/mL"}, {"measurement": "MIC", "setting": "[3]; read-out: MIC 100% inhibition, isolate AF293", "value": 1, "unit": "µg/mL"}, {"measurement": "MIC", "setting": "[3]; read-out: MIC 100% inhibition, isolate D115-106", "value": "> 16", "unit": "µg/mL"}, {"measurement": "MIC", "setting": "[3]; read-out: MIC 100% inhibition, isolate D115-116", "value": 8, "unit": "µg/mL"}, {"measurement": "MIC", "setting": "[4]; ATCC204304, read-out: MIC 100% inhibition, isolate ATCC 204304", "value": 1, "unit": "µg/mL"}, {"measurement": "MIC", "setting": "[4]; read-out: MIC 100% inhibition, isolate Aflav2", "value": 2, "unit": "µg/mL"}, {"measurement": "MIC", "setting": "[4]; read-out: MIC 100% inhibition, isolate Aflav3", "value": 1, "unit": "µg/mL"}, {"measurement": "MIC", "setting": "[5]", "value": 2, "unit": "µg/mL"}, {"measurement": "MIC", "setting": "[6]", "value": 0.125, "unit": "µg/mL"}, {"measurement": "MIC", "setting": "[7]; read-out: MIC 100% inhibition, isolate FO1", "value": 4, "unit": "µg/mL"}, {"measurement": "MIC", "setting": "[7]; read-out: MIC 100% inhibition, isolate FS2", "value": "> 16", "unit": "µg/mL"}, {"measurement": "MIC", "setting": "[7]; read-out: MIC 100% inhibition, isolate FSI", "value": 8, "unit": "µg/mL"}]}
{"smiles": "CN[C@H](CC(C)C)C(=O)N[C@H]1C(=O)N[C@@H](CC(N)=O)C(=O)N[C@H]2C(=O)N[C@H]3C(=O)N[C@H](C(=O)N[C@H](C(=O)O)c4cc(O)cc(O)c4-c4cc3ccc4O)[C@H](O)c3ccc(c(Cl)c3)Oc3cc2cc(c3O[C@@H]2O[C@H](CO)[C@@H](O)[C@H](O)[C@H]2O[C@H]2C[C@](C)(N)[C@H](O)[C@H](C)O2)Oc2ccc(cc2Cl)[C@H]1O", "note": "[Vancomycin]", "values": [{"measurement": "MIC", "setting": "[8]; ATCC49619, isolate ATCC 49619", "value": "≤ 0.125", "unit": "µg/mL"}, {"measurement": "MIC", "setting": "[8]; isolate CO314937", "value": "≤ 0.125", "unit": "µg/mL"}, {"measurement": "MIC", "setting": "[8]; isolate MD77773", "value": 0.25, "unit": "µg/mL"}, {"measurement": "MIC", "setting": "[9]; Staphylococcus aureus", "value": 1, "unit": "µg/mL"}, {"measurement": "MIC", "setting": "[9]; Staphylococcus aureus, ATCC29213", "value": 1, "unit": "µg/mL"}, {"measurement": "MIC", "setting": "[9]; isolate 6229", "value": 1, "unit": "µg/mL"}]}
{"smiles": "C[C@@H](O)[C@H]1C(=O)N2C(C(=O)O)=C(S[C@@H]3CN[C@H](C(=O)N(C)C)C3)[C@H](C)[C@H]12", "note": "[Meropenem]", "values": [{"measurement": "MIC", "setting": "[10]; ATCC17978, isolate ATCC 17978", "value": "≤ 0.125", "unit": "µg/mL"}, {"measurement": "MIC", "setting": "[10]; isolate AR-88", "value": "> 64", "unit": "µg/mL"}, {"measurement": "MIC", "setting": "[10]; isolate AR-273", "value": 64, "unit": "µg/mL"}, {"measurement": "MIC", "setting": "[11]; ATCC27853, isolate ATCC 27853", "value": 0.25, "unit": "µg/mL"}, {"measurement": "MIC", "setting": "[11]; isolate AR-230", "value": "> 64", "unit": "µg/mL"}, {"measurement": "MIC", "setting": "[11]; isolate J4242", "value": 8, "unit": "µg/mL"}, {"measurement": "MIC", "setting": "[12]; ATCC70063, isolate ATCC 70063", "value": "≤ 0.125", "unit": "µg/mL"}, {"measurement": "MIC", "setting": "[12]; isolate AR-97", "value": 64, "unit": "µg/mL"}, {"measurement": "MIC", "setting": "[12]; isolate AR-113", "value": "> 64", "unit": "µg/mL"}, {"measurement": "MIC", "setting": "[13]; Escherichia coli, ATCC25922, isolate ATCC 25922, read-out: MIC", "value": "≤ 0.125", "unit": "µg/mL"}, {"measurement": "MIC", "setting": "[13]; Escherichia coli, isolate J4243 (MO72), read-out: MIC", "value": "≤ 0.125", "unit": "µg/mL"}, {"measurement": "MIC", "setting": "[13]; isolate J4244 (JJ1886)", "value": "≤0.125", "unit": "µg/mL"}]}
